Reference: patent US12642795B2, “MRGPRX2 antagonist for the treatment of pseudo allergic reactions” (The University of Hong Kong, priority 2021, dated 2026)

What was measured:
Human LAD-2 mast cells = assay: β-Hexosaminidase MCs degranulation assay; assay type: cell-based; details: LAD2, LAD-2 MCs, followed by EC90 concentration (10 μM) of C48/80
Method: Human LAD-2 mast cells were seeded at 2×10^4 cells/well/80 μL in a 96-well plate. A 10× stock of antagonist were prepared in HEPES buffer (HEPES (10 mM), NaCl (137 mM), KCl (2.7 mM), Na2HPO4·7H2O (0.4 mM), glucose (5.6 mM), CaCl2·2H2O (1.8 mM), MgSO4·7H2O (1.3 mM), bovine serum albumin (0.04%), pH 7.4). […] The plate was spun at 450×g for 5 minutes at room temperature, and 50 μL of supernatant was aliquoted to a new 96 well plate. The cells were lysed with 100 μL of 0.1% Triton X-100, and 50 μL of lysate was aliquoted to another 96 well plates. A 1.3 mg/ml solution of the substrate PNAG (4-Nitrophenyl N-acetyl-β-D-glucosaminide) was prepared in 0.1 M citric acid/sodium citrate buffer (pH 4.5, 24.087 g/L Sodium Citrate dihydrate, and 3.471 g/L Citric Acid). 50 μL of PNAG was added to each well of supernatant and lysate, and cells were incubated for 90 min at 37° C. (without CO2). The reaction was stopped by adding 50 μL of 0.4 M Glycine buffer. The extent of yellow color was measured at 405 nm using Victor 4× plate reader (PerkinElmer), and percentage MCs degranulation (β-hexosaminidase release) was calculated by using the formula; % MCs degranulation: […]

MRGPRX2 = target: T1, MRGPRX2 (Homo sapiens, UniProt Q96LB1); assay: MRGPRX2 activation assay (PRESTO-Tango assay); assay type: cell-based; details: MRGPRX2-Tango transfected HTLA cells, followed by EC90 concentration (10 μM) of C48/80
T1 construct: expressed in transfected cells; host or cells: HTLA cells
T1 sequence (Q96LB1 1-330): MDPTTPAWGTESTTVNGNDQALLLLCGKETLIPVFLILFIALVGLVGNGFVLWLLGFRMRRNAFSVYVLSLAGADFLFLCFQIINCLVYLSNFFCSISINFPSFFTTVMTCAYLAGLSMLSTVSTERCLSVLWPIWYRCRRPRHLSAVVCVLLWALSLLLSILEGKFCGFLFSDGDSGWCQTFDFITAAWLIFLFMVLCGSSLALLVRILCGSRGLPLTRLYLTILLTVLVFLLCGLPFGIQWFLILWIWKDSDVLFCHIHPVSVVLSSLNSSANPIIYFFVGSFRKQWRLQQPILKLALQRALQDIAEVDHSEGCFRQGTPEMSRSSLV
Method: On day 1 of the experiment, HTLA cells were seeded at 1×10^6 cells per 100 mm cell culture dish for transfection. On the following day (day 2), HTLA cells were transfected with Tango MRGPRX2 DNA using the Lipofectamine transfection reagent (Thermo Fischer Scientific). On day 3, Tango MRGPRX2 transfected cells were transferred into 96-well white clear-bottom cell culture plates at a density of 2×10^4 cells/well/80 μL (PerkinElmer Life Science).

Human LAD-2 MCs = assay: Intracellular Ca2+ flux assay (Fluo-4 NW); assay type: cell-based; details: LAD2 MCs; for efficacy in Ca2+ flux reduction at 12.5 μM, 25 μM and 50 μM: ****P<0.0001 vs C48/80; for reduction of C48/80 induced Ca2+ flux: C48/80 EC90 concentration
Method: The intracellular Ca^2+ flux was measured in human LAD-2 MCs by using the Fluo-4 NW calcium assay kit and the protocol according to the manufacturer (Molecular Probe, Invitrogen, USA). Briefly, LAD-2 cells were plated in a 96-well black well plate (SPL Life Sciences) at a density of 1×10^5 cells/well/40 μL in assay buffer and incubated for 1 h at 37° C. incubators. After 1 h, 40 μL of the 2× dye loading solution and antagonist or buffer was added to the cells (10 μL of 10× stock). […] After one hour of incubation, a graded concentration of agonist or buffer was added to the cells (10 μL of 10× stock). The fluorescence was measured at an excitation wavelength of 494 nm and an emission wavelength of 516 nm using Victor 4× plate reader (PerkinElmer) for 150 seconds. The ΔF was calculated by […] and plotted by using Graph Pad Prism.

human LAD2 MCs = assay: Monocyte chemoattractant protein-1 (MCP-1) measurement by ELISA; assay type: cell-based; details: 12.5 μM, 25 μM and 50 μM; compared to C48/80 control
Method: MCP-1 and PGD2 were measured from human LAD2 MCs via individual ELISA kits. Briefly, MCs were seeded at a density of 1.5×10^5 cells/80 μL/well in a 96 well plate in complete Stem-Pro 34 media. […] The cells were centrifuged to collect the supernatant and stored at −80° C. until analyzed. […] After 24 hours, cells were centrifuged to discard the media and lysed with 0.1M potassium phosphate via sonication. The supernatant of cell lysate was collected and stored at −80° C. until analyzed. MCP-1 (Abcam, Cambridge, UK) and PGD2 (Cayman Chemicals, MI, USA) were quantified by ELISA according to manufacturer instruction.

C57/BL/6N mice [1] = assay: In-vivo local anaphylaxis/pseudo allergic mice model (C48/80 induced); parameters: species or system mouse; details: 5 mg/kg intraperitoneally, vs C48/80 mice; for increase in paw thickness: 15 min after C48/80 (30 μg/ml) in paw; for Evans blue dye extravasation: 15 min after C48/80 (30 μg/ml)
Description: Young adult male mice (C57/BL/6N aged 6-8 weeks old, n=6/group) were used to measure the local anaphylaxis activity by measuring Evans blue tissue extravasation in paw and ear tissue. The animal experiments were approved by the Committee on the Use of Live Animals in Teaching and Research (CULATR) (Animal ethical approval number CULATR 5125-19). Mice were anesthetized via intraperitoneal injection of ketamine and xylazine, and paw thickness was measure using a Vernier caliper. The antagonists (GE0117, GE1109, and GE1111) were injected at a dose of 5 mg/kg body weight via intraperitoneal injection followed by a tail vein injection of 50 μL 12.5% Evans blue in saline (irrespective of the bodyweight). After thirty minutes, C48/80 (10 μL of 30 μg/ml) was injected into one paw and ear, while saline was injected into the other paw and ear as a negative control. After fifteen minutes, the paw and ear tissue were photographed, and the paw thicknesses were measured again to calculate % increase in paw thickness. Mice were euthanized by cervical dislocation under anesthesia, and the collected paw and ear tissues were dried at 50° C. for 24 hours and weighed separately. Evans blue was extracted with formamide (500 μL/tissue) by incubating at 50° C. for 24 h. The supernatant was aliquoted into 96-well plates (200 μL/well, duplicate), and OD was measure at 595 nm using a Victor 4× plate reader (PerkinElmer). The paw edema/inflammation was measured as % increase in paw thickness=

C57/BL/6N mice [2] = assay: In-vivo systemic anaphylaxis mice model (C48/80 induced); parameters: species or system mouse; details: 5 mg/kg intraperitoneally, C48/80 8 mg/kg intraperitoneally
Method: Animals (C57/BL/6N aged 6-8 weeks old, n=6-8/group) were transported to the procedure area the day before injections to minimize stress. The antagonists (GE0117, GE1109, or GE1111) or vehicle was injected intraperitoneally, and mice were kept in the cage for 30 minutes. After 30 minutes of saline (negative control), 8 mg/kg of C48/80 was injected intraperitoneally. The volume of intraperitoneal injection was 10 ml/kg body weight as per AAALAC guidelines. The injection site was swabbed with cotton soaked in 70% alcohol, and the mouse was placed in a separate cage as one mouse per cage. Body core temperature was measured before (basal) and after the injections with an IR non-contact thermometer for one hour. Also, mice were monitored for anaphylaxis symptoms/severity and scored from 0-5 for 1 h or until death following C48/80 injection, whichever was first. Briefly, the scoring system was followed as 0, no symptoms; 1, scratching and rubbing around the nose and head; 2, puffiness around the eyes and mouth, diarrhea, pilar erecti, reduced activity, and/or decreased activity with an increased respiratory rate; 3, wheezing, labored respiration, and cyanosis around the mouth and the tail; 4, no activity after prodding or tremor and convulsion; 5, death. The body core temperature and anaphylaxis score were plotted using Graph Pad Prism.

mice ear tissue MCs = assay: Histological analysis of ear tissue (H&E, Toluidine blue; in-vivo MCs degranulation); parameters: species or system mouse; details: 5 mg/kg intraperitoneally, vs C48/80 treated group
Method: The mice were anesthetized with ketamine/xylazine and were injected with antagonists (GE0117, GE1109, and GE1111) at a dose of 5 mg/kg body weight intraperitoneally. After 30 minutes, C48/80 (10 μL of 30 μg/ml) and saline (as negative control) were injected into the ear. Fifteen minutes later, the mice were sacrificed, and the injection site of the ear was excised, washed with PBS, and fixed with 10% buffered formalin for 24 h. After 24 hours, the ear tissue was dehydrated in a graded concentration of ethanol (30%, 50% & 70% ethanol every 24 hours) at 4° C. Further, the tissue was processed in an automated tissue processor (Leica ASP300) and embedded into paraffin using Embedding Centre (Leica EG1150). The paraffin-embedded tissue was sectioned at […] size using a fully automatic Microtome (Leica RM2265). The tissue sections were subjected to H&E staining using an automated slide Stainer (Leica ST5020) using standard staining protocol. After staining, the slides were dried under a fume hood and mounted with DPX. For the MCs detection, the sectioned ear tissue was subjected to Toluidine blue O staining according to the available online protocol (http://www.ihcworld.com/_protocols/special_stains/toluidine_blue.htm). Images were captured under 10× and 20× magnification using a Nikon Eclipse Ni-U, upright microscope, and Nikon DS-Ri2 microscopic camera (Nikon, Tokyo, Japan).

SMILES	IC50 (Human LAD-2 mast cells) [µM]	IC50 (MRGPRX2) [µM]	efficacy in Ca2+ flux reduction at 12.5 μM, 25 μM and 50 μM (Human LAD-2 MCs)	reduction of C48/80 induced Ca2+ flux (Human LAD-2 MCs)	inhibition of C48/80 induced MCP-1 release (human LAD2 MCs)	increase in paw thickness (C57/BL/6N mice [1])	Evans blue dye extravasation (C57/BL/6N mice [1])	C48/80 induced body temperature change at 35 minutes (C57/BL/6N mice [2])	C48/80 induced body temperature changes at 30 minutes (C57/BL/6N mice [2])	percentage of degranulated MCs in ear tissue (mice ear tissue MCs)	systemic anaphylaxis symptoms (score 0-5) (C57/BL/6N mice [2]; 1 h)
COC(=O)c1cc2cc(NC(N)=O)ccc2cc1-c1ccc2c3c(cccc13)C(=O)C=C2 [GE1109]	9.87	7.14	higher efficacy at all three concentrations	significant concentration-dependent reduction	significant activity only at 25 μM, and 50 μM	significant (*P<0.05) antagonizing activity	significant (*P<0.05) antagonizing activity	significantly reversed the body temperature change	reversed the C48/80 induced body temperature changes	reduces the MCs degranulation	–
COC(=O)c1ccc2cc(-c3cc4c5c(c(O)ccc5c3)C(C)C(C=O)=C4)c(C(=O)OC)cc2c1 (stereo not drawn) [GE1110]	23.4	8.93	higher efficacy at all three concentrations	significant concentration-dependent reduction	–	–	–	–	–	–	–
COC(=O)c1cc2cc(NC(N)=O)ccc2cc1-c1cc2c3c(c(O)ccc3c1)C(C)C(C=O)=C2 (stereo not drawn) [GE1111]	4.7	9.42	higher efficacy at all three concentrations	significant concentration-dependent reduction	significantly inhibits the release of MCP-1 at all the tested concentrations	significantly (***P<0.001) attenuated	significantly (***P<0.001) attenuated	significantly reversed the body temperature change	reversed the C48/80 induced body temperature changes	reduces the MCs degranulation	rehabilitated the compound 48/80 induced hypothermia and severity of anaphylaxis symptoms
O=c1c(-c2ccc(O)cc2)coc2cc(O)cc(O)c12 [genistein, reference compound]	30.3	31.7	–	significant (**P<0.001) Ca^2+ flux reduction at 50 μM concentration only	–	significant (*P<0.05) antagonizing activity	significant (*P<0.05) antagonizing activity	significantly reversed the body temperature change	–	–	–

More lines, main results first:

IC50 (Human LAD-2 mast cells) [µM]	IC50 (MRGPRX2) [µM]	SMILES	efficacy in Ca2+ flux reduction at 12.5 μM, 25 μM and 50 μM (Human LAD-2 MCs)	reduction of C48/80 induced Ca2+ flux (Human LAD-2 MCs)	inhibition of C48/80 induced MCP-1 release (human LAD2 MCs)	increase in paw thickness (C57/BL/6N mice [1])	Evans blue dye extravasation (C57/BL/6N mice [1])	C48/80 induced body temperature change at 35 minutes (C57/BL/6N mice [2])	C48/80 induced body temperature changes at 30 minutes (C57/BL/6N mice [2])	percentage of degranulated MCs in ear tissue (mice ear tissue MCs)	systemic anaphylaxis symptoms (score 0-5) (C57/BL/6N mice [2]; 1 h)
20.8	9.79	COC(=O)c1ccc2cc(-c3cc4c5c(cccc5c3)C(=O)N(C)C4=O)c(NC(N)=O)cc2c1 [GE0117]	higher efficacy at all three concentrations	significant concentration-dependent reduction	significantly inhibits the release of MCP-1 at all the tested concentrations	significantly (***P<0.001) attenuated	significantly (***P<0.001) attenuated	significantly reversed the body temperature change	–	–	–
18.2	8.91	COC(=O)c1ccc2cc(-c3cc4c5c(cccc5c3)C(=O)N(C)C4=O)c(C(=O)OC)cc2c1 [GE0118]	–	significant concentration-dependent reduction	–	–	–	–	–	–	–
25.5	20.1	COC(=O)c1cc2cc(NC(N)=O)ccc2cc1-c1cc2c3c(cccc3c1)C(=O)N(C)C2=O [GE0119]	–	significant concentration-dependent reduction	–	–	–	–	–	–	–
